# Assay results taken from PMC12715984, “Co‐cultivation and Medium Optimization: A Strategy for Discovering Fungal‐derived Protease Inhibitors” (Chemistry & Biodiversity, 2025).
# Where two headings read alike, the source gives them in different places.
# Legend:
# [1] = tested on: T. cruzi Tulahuen lacZ strain; assay: Anti-T. cruzi activity, intracellular amastigotes in HFF-1 cells, beta-galactosidase/CPRG readout; settings: Trypanosoma cruzi, HFF-1, 120 h
# From the text: The evaluation utilized the genetically modified T. cruzi Tulahuen lacZ strain, engineered to express the lacZ gene encoding β‐galactosidase. Viable intracellular parasites express this enzyme, which hydrolyzes the substrate chlorophenol red‐β‐D‐galactopyranoside (CPRG) to release chlorophenol red, a chromogenic product quantified spectrophotometrically at 570 nm. The absorbance intensity directly correlates with the number of metabolically active parasites present during the assay.
# Axenic cultures of T. cruzi epimastigotes (strain MHOM/CH/00/Tulahuen C2, lacZ) were grown in LIT medium containing 10% fetal calf serum (FCS) at 28°C. During the exponential growth phase, parasites were collected via centrifugation (250 × g, 10 min), resuspended in Grace's insect medium supplemented with 10% FCS, and differentiated into metacyclic trypomastigotes over 5–14 days. Differentiated parasites were harvested and used to infect Human Foreskin Fibroblasts (HFF‐1), cultured in Dulbecco's Modified Eagle Medium (DMEM) with 10% FCS under 5% CO2 at 37°C.
# For infection assays, HFF‐1 cells were plated in 96‐well plates (5 × 10⁴ cells/well) in 80 µL phenol red‐free DMEM and incubated overnight. Metacyclic trypomastigotes (5 × 10⁵ parasites/well in 20 µL) were added, followed by 24‐hour incubation. After this period, trypomastigotes differentiate into intracellular amastigotes. Non‐infective parasites were removed by replacing the medium with 100 µL fresh DMEM. Test compounds, at varying concentrations, were then applied to determine IC50 values against intracellular amastigotes, with benznidazole as the positive control. After 5 days of incubation (37°C, 5% CO2), 50 µL of 1 mM CPRG and 0.1% IGEPAL CA‐630 (a non‐ionic detergent) were added. β‐Galactosidase activity, reflecting parasite viability, induced a colorimetric shift from yellow to red, measured at 570 nm. Growth inhibition percentages were calculated relative to untreated controls. Benznidazole was used as the positive control and DMSO as the negative control.
# Cytotoxicity assay, MTS = assay type: cell-based; settings: human, HFF-1, 120-hour incubation, maximum tested 64 µM
# Protocol: Cytotoxicity assays: HFF‐1 fibroblasts (provided by Rio de Janeiro Cell Bank (BCRJ)) were seeded at a density of 2 × 10^3 cells per well in 100 µL of DMEM and incubated overnight at 37°C in a 5% CO2 atmosphere. Subsequently, test compounds were added in serial dilutions, followed by a 120‐hour incubation period under the same conditions. Each plate included negative controls and doxorubicin as a positive control. After incubation, 15 µL of MTS reagent (CellTiter96) was added to each well, and plates were incubated for an additional 4 h. Absorbance was measured at 490 nm using a microplate reader. The percentage of growth inhibition was calculated relative to the absorbance of the negative control wells.
# papain [2] = target: T1, papain (Carica papaya, UniProt P00784); assay: Papain inhibition, fluorometric Z-Phe-Arg-MCA assay; assay type: biochemical; settings: for inhibition at 100 µM: read-out: % inhibition (100 µM)
# T1 construct: purchased
# T1 sequence (P00784 134-345): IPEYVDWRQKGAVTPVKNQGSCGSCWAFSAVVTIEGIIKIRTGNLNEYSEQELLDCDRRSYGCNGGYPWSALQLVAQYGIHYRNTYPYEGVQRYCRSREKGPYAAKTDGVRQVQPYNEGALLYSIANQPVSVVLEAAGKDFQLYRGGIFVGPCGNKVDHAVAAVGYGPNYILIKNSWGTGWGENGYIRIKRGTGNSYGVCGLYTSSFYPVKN
# Protocol: Compounds 1, 2, 4, and 7–11 were tested against papain inhibitory activity. Papain served as the model cysteine protease in the protease inhibition assay. Enzyme activity was assessed via real‐time fluorometric monitoring of 7‐amino‐4‐methylcoumarin (MCA) release during substrate cleavage. Hydrolysis of the fluorogenic substrate Z‐Phe‐Arg‐MCA (ZFR‐MCA) was tracked in black 96‐well plates using a spectrofluorometer (λex/λem = 380/460 nm) (SpectraMax M3, Molecular Devices).
# Each reaction well contained 5 µL papain (80 nM), 2 µL dithiothreitol (DTT, 500 mM), and 158 µL sodium acetate buffer (100 mM, pH 5.5, 5 mM EDTA). After a 5‐minute pre‐incubation at 27°C, 5 µL of test compound (dissolved in DMSO) or DMSO (negative control) was added. In the initial screening, all compounds were tested at a fixed concentration of 100 µM to evaluate their inhibitory potential. Following a second 5‐minute incubation at 27°C, 30 µL ZFR‐MCA (0.6 mM) was added, and fluorescence was recorded every 300 s using a SpectraMax M3 microplate reader (Molecular Devices). This concentration guided subsequent serial dilutions to determine the IC50 (half‐maximal inhibitory concentration).
# For this, a serial dilution series was prepared from the active compounds, and the assay was conducted as previously described. Final assay conditions (200 µL/well) yielded effective compound concentrations of 100 µM to 1.56 µM for IC50 determination. Papain's molar concentration was validated via titration with the irreversible inhibitor E‐64 (positive control) from 1.0 µM to 31.25 nM. All experiments included triplicate measurements across two independent trials (total n = 6).
# [3] = tested on: Candida albicans (ATCC 64548); assay: Antifungal broth microdilution (CLSI M27A3), MIC; assay type: cell-based; settings: for MIC: Candida albicans, ATCC64548, read-out: minimum inhibitory concentration (MIC)
# Protocol: The antifungal activity of compounds 1–5, 7–11 was evaluated using the broth microdilution method in 96‐well plates, following the Clinical Laboratory Standard Institute (CLSI) guidelines M27A3 [35, 36], with minor modifications. The assay was performed against Candida auris (CDC B11903), Candida parapsilosis (ATCC 22019), and Candida albicans (ATCC 64548), and based on the determination of the minimum inhibitory concentration (MIC).
# Each compound was initially dissolved in DMSO at a stock concentration 100 times higher than the highest concentration tested. Working solutions were subsequently prepared in RPMI 1640 culture medium (pH 7.0), supplemented with L‐glutamine, devoid of bicarbonate, and containing phenol red as a pH indicator, to yield a 2 × concentration. Serial two‐fold dilutions were made to obtain final concentrations ranging from 3.125 to 200.00 µg/mL. Fluconazole was used as a reference antifungal control.
# Aliquots of 100 µL of each 2 × test solution were dispensed into the wells of the microdilution plates. Fungal suspensions were prepared in autoclaved distilled water and adjusted to a final concentration of 5.0 × 10^3 conidia or blastoconidia/mL. After inoculation, plates were incubated at 37°C. Fungal growth was visually assessed after 24 and 48 h. […] All assays were performed in duplicate.
# papain [4] = target: T1, papain; design: method as in earlier work; settings: at 200 µM; cited from earlier work
# plant-parasitic nematode = tested on: plant-parasitic nematode; design: method as in PMID 27990770; settings: cited from earlier work
# bacteria = tested on: bacteria; design: method as in PMID 21497643; settings: cited from earlier work
# Cryphonectria parasitica = tested on: Cryphonectria parasitica; design: method as in PMID 11052720; settings: against Cryphonectria parasitica; cited from earlier work
# papain [5] = target: T1, papain; design: method as in PMID 32189177; settings: at a concentration of 50 µM, cited from earlier work
compound,measurement,setting,value
"O=C(Cn1ccnc1[N+](=O)[O-])NCc1ccccc1 [Benznidazole, reference compound]",IC50,[1],2.24 ± 0.9 µM
"CCCCc1ccc(C(=O)[O][Mg][O]C(=O)c2ccc(CCCC)cn2)nc1 [Compound 2, magnesium complex of fusaric acid]",CC50 at 120 h,"Cytotoxicity assay, MTS",> 64 µM
same,IC50,papain [2]; papain,17.5 µM
same,inhibition at 100 µM,papain [2],94 ± 7.9%
same,MIC,[3],50 µg/mL
same,IC50,[1],12.2 ± 0.4 µM
"CSC12CC3=CC=CC(OC(C)=O)C3N1C(=O)C1(SC)CC3=CC=CC(OC(C)=O)C3N1C2=O (centres unmarked) [Compound 4, haematocin]",CC50 at 120 h,"Cytotoxicity assay, MTS",> 64 µM
same,IC50,papain [2],47.7 µM
same,inhibition at 100 µM,papain [2],76.6%
same,MIC,[3],100 µg/mL
same,IC50,[1],13.3 ± 1 µM
"CCCCc1ccc(C(=O)O)nc1 [Compound 5, fusaric acid]",papain inhibition,papain [4],58%
same,CC50 at 120 h,"Cytotoxicity assay, MTS",> 64 µM
same,IC50,[1],20.9 ± 0.3 µM
"C[C@@H](O)CCc1ccc(C(=O)O)nc1 [Compound 7, (R)‐fusarinolic acid]",plant-parasitic nematode activity,plant-parasitic nematode,no significant activity
same,antibacterial activity,bacteria,no significant activity
same,CC50 at 120 h,"Cytotoxicity assay, MTS; HFF-1 fibroblasts",> 64 µM
same,IC50,[1],60.07 ± 0.6 µM
"CC(C)=CCCC(C)(O)C1CCC(C)(O)C1C (centres unmarked) [Compound 8, cyclonerodiol]",antifungal activity,Cryphonectria parasitica,weak antifungal activity
same,CC50 at 120 h,"Cytotoxicity assay, MTS; HFF-1 fibroblasts",> 64 µM
same,inhibition at 100 µM,"papain [2]; papain, compound at 100 µM",89%
same,IC50,"papain [2]; papain, read-out: IC50",25.9 µM
same,IC50,[1],22.7 ± 1.1 µM
"CC(C)C[C@H](NC(=O)[C@H]1O[C@@H]1C(=O)O)C(=O)NCCCCN=C(N)N [E‐64, reference compound]",IC50,"papain [2]; papain, positive control, read-out: IC50",0.0072 µM
CC(C)C[C@@H]1NC(=O)[C@@H]2CCCN2C1=O [cyclo(L‐Leu‐L‐Pro) diketopiperazine],papain inhibition,papain [5]; 50 µM,3%
CC(C)[C@@H]1NC(=O)[C@@H]2CCCN2C1=O [cyclo(L‐Val‐L‐Pro)],papain inhibition,papain [5],10%
Iron complex of fusaric acid [Compound 1],% inhibition (100 µM),"papain [2]; papain, compound at 100 µM, 100 µM",88.6%
same,IC50,"papain [2]; papain, read-out: IC50",14.1 µM
same,minimum inhibitory concentration (MIC),"[3]; C. albicans, tested 3.125 to 200.00 µg/mL",100 µg/mL
